Among the data in patent publication US9453034B2, “C2-azaspiro iminothiazine dioxides as BACE inhibitors, compositions, and their use” (Merck Sharp & Dohme Corp., priority 2013, dated 2016) are Ki values, retold here.

Each structure is given as a SMILES string.

One may read the Ki as the equilibrium dissociation constant of an inhibitor or competing ligand from its target.

The target in assay [1] is purified human autoBACE-2 (Homo sapiens (Human), UniProt Q9Y5Z0). Nature of the assay: BACE-2 Assay (BACE-HTRF assay). The class given is biochemical. The settings on record: Ki calculated from IC50 using the Cheng-Prusoff equation; QSY7-EISEVNLDAEFC-Eu-amide substrate, pH 5.0; read-out: BACE2 Ki. Here is the method: Inhibitor IC50s at purified human autoBACE-2 are determined in a time-resolved endpoint proteolysis assay that measures hydrolysis of the QSY7-EISEVNLDAEFC-Eu-amide FRET peptide substrate (BACE-HTRF assay). BACE-mediated hydrolysis of this peptide results in an increase in relative fluorescence (RFU) at 620 nm after excitation with 320 nm light. Inhibitor compounds, prepared at 3× the desired final concentration in 1×BACE assay buffer (20 mM sodium acetate pH 5.0, 10% glycerol, 0.1% Brij-35) supplemented with 7.5% DMSO are pre-incubated with an equal volume of autoBACE-2 enzyme diluted in 1×BACE assay buffer (final enzyme concentration 1 nM) in black 384-well NUNC plates for 30 minutes at 30° C. The assay is initiated by addition of an equal volume of the QSY7-EISEVNLDAEFC-Eu-amide substrate (200 nM final concentration, Km=8 μM […] for autoBACE-2) prepared in 1×BACE assay buffer supplemented with 7.5% DMSO and incubated for 90 minutes at 30° C. DMSO is present at 5% final concentration in the assay. Following laser excitation of sample wells at 320 nm, the fluorescence signal at 620 nm is collected for 400 ms following a 50 μs delay on a RUBYstar HTRF plate reader (BMG Labtechnologies). Raw RFU data is normalized to maximum (1.0 nM BACE/DMSO) and minimum (no enzyme/DMSO) RFU values. IC50s are determined by nonlinear regression analysis (sigmoidal dose response, variable slope) of percent inhibition data with minimum and maximum values set to 0 and 100 percent respectively. Similar IC50s are obtained when using raw RFU data. The Ki values are calculated from the IC50 using the Cheng-Prusoff equation.

In assay [2] the target is soluble human BACE1 catalytic domain (Homo sapiens (Human), UniProt P56817). The experiment in a line: BACE1 HTRF FRET Assay. The settings on record: Ki calculated from IC50 using the Cheng-Prusoff equation; QSY7-APPswe-Eu substrate, pH 5.0. The class given is biochemical. An excerpt: Reagents: Na^+-Acetate pH 5.0; 1% Brij-35; Glycerol; Dimethyl Sulfoxide (DMSO);
A homogeneous time-resolved FRET assay can be used to determine IC50 values for inhibitors of the soluble human BACE1 catalytic domain. This assay monitors the increase of 620 nm fluorescence that resulted from BACE1 cleavage of an APPswedish APP^swe mutant peptide FRET substrate (QSY7-[…]-Europium-amide). This substrate contains an N-terminal QSY7 moiety that serves as a quencher of the C-terminal Europium fluorophore (620 nm Em). […] Inhibition of BACE1 cleavage of the QSY7-APP^swe-Eu substrate by inhibitors is manifested as a suppression of 620 nm fluorescence.
Reactions are initiated by addition of 10 μl of 600 nM QSY7-APP^swe-Eu substrate (200 nM final) to give a final reaction volume of 30 μl in a 384 well Nunc HTRF plate. The reactions are incubated at 30° C. for 1.5 hours. The 620 nm fluorescence is then read on a Rubystar HTRF plate reader (BMG Labtechnologies) using a 50 millisecond delay followed by a 400 millisecond acquisition time window. Inhibitor IC50 values are derived from non-linear regression analysis of concentration response curves.

Chain of purified human autoBACE-2 (Q9Y5Z0 63-473): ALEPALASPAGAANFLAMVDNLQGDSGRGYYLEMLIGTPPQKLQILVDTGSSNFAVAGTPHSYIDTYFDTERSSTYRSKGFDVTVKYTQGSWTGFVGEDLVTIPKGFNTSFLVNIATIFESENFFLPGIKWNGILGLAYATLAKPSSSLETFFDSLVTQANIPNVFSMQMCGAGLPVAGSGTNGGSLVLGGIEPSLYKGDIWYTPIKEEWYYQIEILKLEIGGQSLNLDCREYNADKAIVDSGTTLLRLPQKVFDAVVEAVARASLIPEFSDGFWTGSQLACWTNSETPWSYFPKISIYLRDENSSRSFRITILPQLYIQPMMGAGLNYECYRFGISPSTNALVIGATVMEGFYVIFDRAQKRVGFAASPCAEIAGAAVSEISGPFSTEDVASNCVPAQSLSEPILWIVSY
Chain of soluble human BACE1 catalytic domain (P56817 75-416): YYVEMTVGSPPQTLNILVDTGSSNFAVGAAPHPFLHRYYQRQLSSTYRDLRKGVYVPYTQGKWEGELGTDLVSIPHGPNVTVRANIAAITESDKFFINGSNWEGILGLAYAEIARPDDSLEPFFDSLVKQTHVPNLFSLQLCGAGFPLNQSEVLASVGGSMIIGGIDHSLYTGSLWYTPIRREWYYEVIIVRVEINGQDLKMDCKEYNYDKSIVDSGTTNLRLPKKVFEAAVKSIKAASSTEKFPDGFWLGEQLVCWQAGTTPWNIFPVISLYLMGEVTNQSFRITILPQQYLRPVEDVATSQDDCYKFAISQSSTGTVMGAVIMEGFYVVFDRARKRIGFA

`COc1ccc(C(=O)Nc2ccc(F)c([C@]3(C)CS(=O)(=O)C4(CN(Cc5ccccc5)C4)C(=N)N3)c2)nc1` [Example 40, (R)—N-(3-(2-benzyl-9-imino-7-methyl-5,5-dioxido-5-thia-2,8-diazaspiro[3.5]nonan-7-yl)-4-fluorophenyl)-5-methoxypicolinamide]: the figures for the Ki in assay [1] and in assay [2] were 0.6 nM and 7.7 nM, respectively.
Taken in the same sequence, the figures for `Cc1cc(C#N)cnc1C(=O)Nc1ccc(F)c([C@]2(C)CS(=O)(=O)C3(CN(C)C3)C(=N)N2)c1` [Example 11, 5-cyano-N-{4-fluoro-3-[(7R)-9-imino-2,7-dimethyl-5,5-dioxido-5-thia-2,8-diazaspiro[3.5]non-7-yl]phenyl}-3-methylpyridine-2-carboxamide] were 1 nM and 1.3 nM.
Taken in the same sequence, the figures for `COc1cnc(C(=O)Nc2ccc(F)c([C@]3(C)CS(=O)(=O)C4(CCN(C)CC4)C(=N)N3)c2)c(C)c1` [Example 33, N-{4-fluoro-3-[(3R)-5-imino-3,9-dimethyl-1,1-dioxido-1-thia-4,9-diazaspiro[5.5]undec-3-yl]phenyl}-5-methoxy-3-methylpyridine-2-carboxamide] were 23 nM and 37 nM.
Taken in the same sequence, the figures for `CN1CC2(C1)C(=N)N[C@](C)(c1cc(NC(=O)c3ccc(OC(F)F)cn3)ccc1F)CS2(=O)=O` [Example 7, 5-(difluoromethoxy)-N-{4-fluoro-3-[(7R)-9-imino-2,7-dimethyl-5,5-dioxido-5-thia-2,8-diazaspiro[3.5]non-7-yl]phenyl}pyridine-2-carboxamide] were 4.3 nM and 2.7 nM.
Take `COCC(=O)Nc1ccc(F)c([C@]2(C)CS(=O)(=O)C3(CCN(C)CC3)C(=N)N2)c1` [Example 36b, N-{4-fluoro-3-[(3R)-5-imino-3,9-dimethyl-1,1-dioxido-1-thia-4,9-diazaspiro[5.5]undec-3-yl]phenyl}-2-methoxyacetamide]: the Ki is 56 nM in assay [1] and 548 nM in assay [2].
On the same counts, the results for `COc1cnc(C(=O)Nc2ccc(F)c([C@]3(C)CS(=O)(=O)C4(CCN(C)CC4)C(=N)N3)c2)cn1` [Example 28, N-{4-fluoro-3-[(3R)-5-imino-3,9-dimethyl-1,1-dioxido-1-thia-4,9-diazaspiro[5.5]undec-3-yl]phenyl}-5-methoxypyrazine-2-carboxamide] are 29 nM and 19 nM.
As for `CN1CC2(C1)C(=N)N[C@](C)(c1cc(NC(=O)c3ncc(C#N)cc3C3CC3)ccc1F)CS2(=O)=O` [Example 12a, 5-cyano-3-cyclopropyl-N-{4-fluoro-3-[(7R)-9-imino-2,7-dimethyl-5,5-dioxido-5-thia-2,8-diazaspiro [3.5]non-7-yl]phenyl}pyridine-2-carboxamide], the Ki was 0.8 nM in assay [1] and 1.3 nM in assay [2].
